Laboratory results published in ChEMBL document CHEMBL5321270, “Discovery of Pyrazolone Carbothioamide Derivatives as Inhibitors of the Pdr1-KIX Interaction for Combinational Treatment of Azole-Resistant Candidiasis” (J Med Chem, 2023).
≈ marks a conversion by molar mass, not a printed value. Calls of active or inactive are those of the source. No cut-off for these calls is given here.

Key:
[1] = Aqueous solubility of compound; format: physicochemical
[2] = AUC (0-t) in ICR mouse at 10 mg/kg,po measured upto 24 hrs by LC-MS/MS analysis; format: ADME, organism-based; set-up: time < 24 hrs, dose 10 mg/kg, route po; details: in vivo
[3] = Clearance in ICR mouse at 2 mg/kg,iv measured upto 24 hrs by LC-MS/MS analysis; format: ADME, organism-based; details: in vivo
[4] = Inhibition of fluorescent probe FITC tagged PDR1-KIX domain (unknown origin) protein-protein interaction assessed as inhibition constant incubated for 2 hrs by fluorescence polarization binding assay
Nakaseomyces glabratus [5] = experiment: Synergistic antifungal activity against FLC-resistant Candida glabrata 0161 infected in cyclophosphamide immunosuppressed ICR mouse model assessed as inhibition of fungal growth in kidney at 5 mg/kg,ip administrated in presence of fluconazole for 5 days; format: functional, organism-based; details: time 5.0 day
[6] = Cytotoxicity against human HUVEC cells incubated for 48 hrs by CCK-8 assay; format: toxicity, cell-based
Nakaseomyces glabratus [7] = experiment: Antifungal activity against FLC-resistant Candida glabrata 0161 infected in cyclophosphamide immunosuppressed ICR mouse model assessed as inhibition of fungal growth in kidney at ip administration for 5 days; format: functional, organism-based; details: time 5.0 day
Nakaseomyces glabratus [8] = experiment: Antifungal activity against fluconazole-resistant Candida glabrata 9256 assessed as fungal growth inhibition incubated for 48 hrs by microplate reader assay; format: functional
Nakaseomyces glabratus [9] = experiment: Antifungal activity against fluconazole-resistant Candida glabrata 0161 assessed as inhibition of fungal biofilm formation at 32 ug/ml incubated for 24 hrs by XXT reduction menadione assay; format: functional
[Candida] auris [10] = Antifungal activity against Candida auris 0030 assessed as fungal growth inhibition incubated for 48 hrs by microplate reader assay; format: functional; details: Candidozyma auris
Nakaseomyces glabratus [11] = experiment: Synergistic antifungal activity against FLC-resistant Candida glabrata 0161 infected in cyclophosphamide immunosuppressed ICR mouse model assessed as reduction in kidney fungal infection at 5 mg/kg,ip administrated for 5 days in presence of fluconazole by Hematoxylin and eosin staining based analysis; format: functional, organism-based; details: time 5.0 day
[12] = AUC (0-t) in ICR mouse at 2 mg/kg,iv measured upto 24 hrs by LC-MS/MS analysis; format: ADME, organism-based; set-up: time < 24 hrs, dose 2 mg/kg, route iv; details: in vivo
Candida parapsilosis = experiment: Antifungal activity against Candida parapsilosis 20090 assessed as fungal growth inhibition incubated for 48 hrs by microplate reader assay; format: functional; details: Lodderomyces parapsilosis
[13] = Cmax in ICR mouse at 10 mg/kg,po measured upto 24 hrs by LC-MS/MS analysis; format: ADME, organism-based; set-up: dose 10 mg/kg, time < 24 hrs, route po; details: in vivo
[14] = Volume of distribution at steady state in ICR mouse at 2 mg/kg,iv measured upto 24 hrs by LC-MS/MS analysis; format: ADME, organism-based; details: in vivo, read-out: Vdss
[15] = Half life in ICR mouse at 2 mg/kg,iv measured upto 24 hrs by LC-MS/MS analysis; format: ADME, organism-based; details: in vivo
Nakaseomyces glabratus [16] = experiment: Antifungal activity against fluconazole-resistant Candida glabrata 8535 assessed as fungal growth inhibition incubated for 48 hrs by microplate reader assay; format: functional
Nakaseomyces glabratus [17] = experiment: Antifungal activity against fluconazole-resistant Candida glabrata 0161 assessed as increase in Nile red accumulation at 50 uM incubated for 30 mins by nile red staining based confocal microscopic analysis; format: functional, organism-based
Nakaseomyces glabratus [18] = experiment: Antifungal activity against FLC-resistant Candida glabrata 0161 infected in cyclophosphamide immunosuppressed ICR mouse model assessed as inhibition of fungal growth in kidney at 5 mg/kg,ip administrated for 5 days; format: functional, organism-based; details: time 5.0 day
[Candida] auris [19] = Antifungal activity against Candida auris 15448 assessed as fungal growth inhibition incubated for 48 hrs by microplate reader assay; format: functional; details: Candidozyma auris
Nakaseomyces glabratus [20] = experiment: Synergistic antifungal activity against fluconazole-resistant Candida glabrata 0161 assessed as fractional inhibitory concentration index incubated for 48 hrs in presence of fluconazole by checkerboard microdilution method; format: functional
Nakaseomyces glabratus [21] = experiment: Antifungal activity against FLC-resistant Candida glabrata 0161 infected in cyclophosphamide immunosuppressed ICR mouse model assessed as pathological change in kidney at 5 mg/kg,ip administrated for 5 days by Hematoxylin and eosin staining based analysis; format: functional, organism-based; details: time 5.0 day
[22] = AUC (0-infinity) in ICR mouse at 2 mg/kg,iv measured upto 24 hrs by LC-MS/MS analysis; format: ADME, organism-based; set-up: dose 2 mg/kg, time < 24 hrs, route iv; details: in vivo
[23] = Tmax in ICR mouse at 10 mg/kg,po measured upto 24 hrs by LC-MS/MS analysis; format: ADME, organism-based; details: in vivo
Nakaseomyces glabratus [24] = experiment: Synergistic antifungal activity against fluconazole-resistant Candida glabrata 0161 assessed as downregulation of ERG11 gene expression at 4 ug/ml in presence of fluconazole by RT-PCR analysis; format: functional, organism-based; details: dose 4.0 µg/ml
Nakaseomyces glabratus [25] = experiment: Antifungal activity against fluconazole-resistant Candida glabrata 0161 assessed as fractional inhibitory concentration incubated for 48 hrs in presence of fluconazole by microplate reader assay; format: functional
Nakaseomyces glabratus [26] = experiment: Antifungal activity against FLC-resistant Candida glabrata 0161 infected in cyclophosphamide immunosuppressed ICR mouse model assessed as inhibition of fungal growth in kidney at 40 mg/kg,ip administrated for 5 days; format: functional, organism-based; details: time 5.0 day
Nakaseomyces glabratus [27] = experiment: Synergistic antifungal activity against fluconazole-resistant Candida glabrata 0161 assessed as inhibition of fungal biofilm formation at 1 ug/ml incubated for 24 hrs in presence of fluconazole by XXT reduction menadione assay; format: functional
[28] = Half life in ICR mouse at 10 mg/kg,po measured upto 24 hrs by LC-MS/MS analysis; format: ADME, organism-based; details: in vivo
Nakaseomyces glabratus [29] = experiment: Synergistic antifungal activity against fluconazole-resistant Candida glabrata 0161 assessed as fungal growth inhibition incubated for 48 hrs in presence of fluconazole by time-growth curve assay; format: functional, organism-based
Nakaseomyces glabratus [30] = experiment: Synergistic antifungal activity against fluconazole-resistant Candida glabrata 0161 assessed as downregulation of CDR2 gene expression at 4 ug/ml in presence of fluconazole by RT-PCR analysis; format: functional, organism-based; details: dose 4.0 µg/ml
[31] = Cmax in ICR mouse at 2 mg/kg,iv measured upto 24 hrs by LC-MS/MS analysis; format: ADME, organism-based; set-up: dose 2 mg/kg, time < 24 hrs, route iv; details: in vivo
Nakaseomyces glabratus [32] = experiment: Synergistic antifungal activity against fluconazole-resistant Candida glabrata 0161 assessed as downregulation of PDR1 gene expression at 4 ug/ml in presence of fluconazole by RT-PCR analysis; format: functional, organism-based; details: dose 4.0 µg/ml
Candida albicans = experiment: Antifungal activity against Candida albicans assessed as fungal growth inhibition incubated for 48 hrs by microplate reader assay; format: functional
Aspergillus fumigatus = experiment: Antifungal activity against Aspergillus fumigatus 7544 assessed as fungal growth inhibition incubated for 48 hrs by microplate reader assay; format: functional
Candida tropicalis = experiment: Antifungal activity against Candida tropicalis 10186 assessed as fungal growth inhibition incubated for 48 hrs by microplate reader assay; format: functional
Trichophyton rubrum = experiment: Antifungal activity against Trichophyton rubrum assessed as fungal growth inhibition incubated for 48 hrs by microplate reader assay; format: functional
Nakaseomyces glabratus [33] = experiment: Synergistic antifungal activity against fluconazole-resistant Candida glabrata 0161 assessed as inhibition of fungal biofilm formation at 32 ug/ml incubated for 24 hrs in presence of fluconazole by XXT reduction menadione assay; format: functional
Nakaseomyces glabratus [34] = experiment: Antifungal activity against fluconazole-resistant Candida glabrata 0161 assessed as fluconazole fractional inhibitory concentration incubated for 48 hrs in presence of fluconazole by microplate reader assay; format: functional
Nakaseomyces glabratus [35] = experiment: Synergistic antifungal activity against fluconazole-resistant Candida glabrata 0161 assessed as downregulation of CDR1 gene expression at 4 ug/ml in presence of fluconazole by RT-PCR analysis; format: functional, organism-based; details: dose 4.0 µg/ml
Nakaseomyces glabratus [36] = experiment: Antifungal activity against fluconazole-resistant Candida glabrata 0161 assessed as fungal growth inhibition incubated for 48 hrs by microplate reader assay; format: functional

Work on `Nc1cc(=O)n(C(=S)Nc2ccc3c(c2)CCC3)[nH]1` yielded a solubility [1] of 22.1 µg/mL (≈ 80.4 µM), an AUC(0-t) at 24 h [2] of 389 ng·h/mL and a clearance [3] of 68.6 mL/min/kg. The Ki [4] was 11.7 µM, the Activity (Nakaseomyces glabratus [5]) was “Active” and the IC50 at 48 h [6] was over 83 µM. The Activity (Nakaseomyces glabratus [7]) was “Dose-Dependent Effect”, the MIC (Nakaseomyces glabratus [8]) was 0.25 µg/mL (≈ 0.911 µM) and the inhibition at 32 µg/mL (Nakaseomyces glabratus [9]) was 40%. For the same compound, the MIC ([Candida] auris [10]) was 2 µg/mL (≈ 7.29 µM), the Activity (Nakaseomyces glabratus [11]) was “Active” and the AUC(0-t) at 24 h [12] was 489 ng·h/mL. It also gave an MIC (Candida parapsilosis) of 4 µg/mL (≈ 14.6 µM), a Cmax [13] of 875 ng/mL and a Vd [14] of 1.04 L/kg. For the same compound, the half-life [15] was 51.6 min, the MIC (Nakaseomyces glabratus [16]) was 0.25 µg/mL (≈ 0.911 µM) and the Activity (Nakaseomyces glabratus [17]) was “Active”. The Activity (Nakaseomyces glabratus [18]) was “Active”, the MIC ([Candida] auris [19]) was 2 µg/mL (≈ 7.29 µM) and the “fractional inhibitory concentration index (FICI)” value (Nakaseomyces glabratus [20]) was 0.28. The Activity (Nakaseomyces glabratus [21]) was “Active”, the AUC(0-inf) [22] was 491 ng·h/mL and the Tmax [23] was 15 min. The Activity (Nakaseomyces glabratus [24]) was “Active”, the FIC (Nakaseomyces glabratus [25]) was 0.063 µg/mL and the Activity (Nakaseomyces glabratus [26]) was “Active”. For the same compound, the inhibition at 1 µg/mL (Nakaseomyces glabratus [27]) was 33%, the half-life [28] was 36 min and the Activity (Nakaseomyces glabratus [29]) was “Dose-Dependent Effect”. For the same compound, the Activity (Nakaseomyces glabratus [30]) was “Active”, the Cmax [31] was 1520 ng/mL and the Activity (Nakaseomyces glabratus [32]) was “Active”. The MIC (Candida albicans) was 4 µg/mL (≈ 14.6 µM), the MIC (Aspergillus fumigatus) was 16 µg/mL (≈ 58.3 µM) and the MIC (Candida tropicalis) was 4 µg/mL (≈ 14.6 µM). The MIC (Trichophyton rubrum) was 1 µg/mL (≈ 3.64 µM), the inhibition at 32 µg/mL (Nakaseomyces glabratus [33]) was 73% and the “fluconazole MIC in combination” value (Nakaseomyces glabratus [34]) was 1 µg/mL. For the same compound, the Activity (Nakaseomyces glabratus [35]) was “Active” and the MIC (Nakaseomyces glabratus [36]) was 0.25 µg/mL (≈ 0.911 µM).
